Test results as given in US20040242542A1, “Compositions and methods for inducing CD81 dependent antiproliferation and for treating hepatitis C and other disorders” (The Regents of the University of California, priority 2003, published 2004).

How the values were obtained:
[1] = tested on: CD81-enriched cell lines (astrocyte) vs. CD81-deficient cell lines (C6 glioma); assay: Antiproliferation of CD81-enriched astrocytes vs. CD81-deficient C6 glioma cells; type: cell-based; details: for astrocyte-selective antiproliferation: concentration range of 0.1 to 10 μM, astrocytes relative to CD81-deficient cell lines
Source text: Further in accordance with the present invention, there are provided methods for synthesis of amantadine analogues by appending primary amines to 1-boraadamantane to evaluate such compounds for CD81 dependent antiproliferation of CD81-enriched cell lines (astrocyte) vs. CD81-deficient cell lines (C6 glioma). Specific details of the synthetic methods of the present invention as well as related data is now published in Wagner, Carl E. et al., Synthesis of-1-Boraadamantaneamine Derivatives with Selective Astrocyte vs C6 Glioma Antiproliferative Activity. A Novel Class of Anti-Hepatitis C Agents with Potential to Bind CD81, J.Med.Chem., Vol.46,2823-2833 (2003) and Wagner, Carl E., Syntheis and First Molecular Structure of a Bis-2-spiro-1boraadamantane Dirivative, Organic Letters, Vol. 6, No. 3, 313-316 (2004), copies of which are filed herewith and the entireties of which are expressly incorporated herein by reference.
The amantadine analogues of the present invention that bind to and activate CD81 may have the potential to prevent or treat HCV infections. Each compound's potential for preventive and therapeutic activity stems from the compound's potential to block viral attachment, virus-cell fusion or virus entry into host cells, or similarly counter potential mechanisms of HCV immune evasion. Out of a library of over 500 compounds including randomly selected small molecules and rationally designed small molecules, only the 1-boraadamantane amine compounds display a significant antiproliferative effect on the CD81-enriched astrocytes relative to the CD81-deficient cell lines. […] Additionally, structurally similar adamantane analogues to the active primary amine 1-boraadamantane complexes identified in this assay were synthesized for testing.
A variety of 1-boraadamatane amine complexes were synthesized by stoichiometric addition of a primary amine to 1-boraadamantane·THF. These complexes were subsequently evaluated for an antiproliferative effect on CD81-enriched cell lines to provide evidence for binding and activation of the CD81 receptor. Additional amantidine analogues structurally similar to the 1-boraadamantane amine complexes were also synthesized.

α4 β1/VCAM cell line = α4 β1/VCAM cell line (Homo sapiens, UniProt P05556+P13612); details: reported in the literature; read-out: IC50 as antagonist for α4 β1/VCAM; cited from earlier work
Chain of α4 β1/VCAM cell line (P13612 34-1032): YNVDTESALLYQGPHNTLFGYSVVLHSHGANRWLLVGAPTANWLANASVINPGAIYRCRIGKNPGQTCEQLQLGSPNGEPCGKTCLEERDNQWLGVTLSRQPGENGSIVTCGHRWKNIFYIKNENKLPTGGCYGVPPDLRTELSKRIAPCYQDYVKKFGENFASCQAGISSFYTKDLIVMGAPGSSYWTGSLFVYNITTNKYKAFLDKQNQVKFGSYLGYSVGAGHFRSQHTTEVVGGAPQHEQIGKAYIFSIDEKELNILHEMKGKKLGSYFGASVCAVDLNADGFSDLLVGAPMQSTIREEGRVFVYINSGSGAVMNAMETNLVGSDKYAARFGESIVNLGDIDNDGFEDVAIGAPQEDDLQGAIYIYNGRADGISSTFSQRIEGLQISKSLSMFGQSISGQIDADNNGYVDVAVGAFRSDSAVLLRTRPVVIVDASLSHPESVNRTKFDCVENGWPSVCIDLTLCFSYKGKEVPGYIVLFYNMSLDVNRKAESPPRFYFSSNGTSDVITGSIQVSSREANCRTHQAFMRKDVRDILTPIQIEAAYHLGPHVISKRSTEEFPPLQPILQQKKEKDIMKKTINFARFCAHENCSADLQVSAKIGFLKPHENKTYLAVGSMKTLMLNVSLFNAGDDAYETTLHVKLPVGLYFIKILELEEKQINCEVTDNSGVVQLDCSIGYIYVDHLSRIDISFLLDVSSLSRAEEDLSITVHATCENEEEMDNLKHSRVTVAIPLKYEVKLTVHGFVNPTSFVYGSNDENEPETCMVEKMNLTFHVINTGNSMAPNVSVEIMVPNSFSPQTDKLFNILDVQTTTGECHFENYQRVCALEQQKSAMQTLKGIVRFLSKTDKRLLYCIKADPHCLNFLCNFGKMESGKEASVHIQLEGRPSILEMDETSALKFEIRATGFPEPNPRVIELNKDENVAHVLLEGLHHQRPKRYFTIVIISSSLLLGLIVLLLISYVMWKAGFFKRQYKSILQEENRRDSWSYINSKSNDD
Chain of α4 β1/VCAM cell line (P05556 21-798): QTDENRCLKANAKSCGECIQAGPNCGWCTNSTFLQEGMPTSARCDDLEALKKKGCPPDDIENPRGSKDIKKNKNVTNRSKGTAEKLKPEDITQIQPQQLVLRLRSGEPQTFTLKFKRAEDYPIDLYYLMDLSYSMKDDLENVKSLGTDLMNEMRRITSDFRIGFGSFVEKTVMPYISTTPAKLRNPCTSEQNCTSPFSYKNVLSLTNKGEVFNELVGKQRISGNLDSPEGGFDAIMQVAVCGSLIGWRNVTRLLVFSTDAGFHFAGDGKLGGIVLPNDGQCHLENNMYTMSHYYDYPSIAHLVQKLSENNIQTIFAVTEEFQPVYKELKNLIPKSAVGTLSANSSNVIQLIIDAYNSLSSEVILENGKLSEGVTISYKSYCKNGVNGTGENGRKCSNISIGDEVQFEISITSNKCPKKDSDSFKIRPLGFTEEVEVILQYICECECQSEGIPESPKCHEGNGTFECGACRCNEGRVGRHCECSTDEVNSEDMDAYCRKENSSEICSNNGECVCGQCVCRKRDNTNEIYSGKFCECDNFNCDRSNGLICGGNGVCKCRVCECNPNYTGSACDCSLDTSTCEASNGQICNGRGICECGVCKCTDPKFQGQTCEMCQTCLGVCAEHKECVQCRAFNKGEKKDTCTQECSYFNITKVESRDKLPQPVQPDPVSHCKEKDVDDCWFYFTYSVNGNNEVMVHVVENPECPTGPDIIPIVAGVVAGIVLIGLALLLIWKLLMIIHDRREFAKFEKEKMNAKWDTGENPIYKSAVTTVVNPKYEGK

Compound	astrocyte-selective antiproliferation [1]	IC50 (α4 β1/VCAM cell line) [µM]	other results
1-boraadamantane 1-aminoadamantane complex [Complex 1]	–	–	inhibiting the proliferation of the astrocyte cell line (ranking) ([1]; cell based assay, astrocyte cell line): most active compounds
O=C(O)[C@H](Cc1ccccc1)NC(=O)C12CC3CC(CC(C3)C1)C2 [Complex 15]	astrocyte-selective antiproliferation	–	antiproliferative character (ranking) ([1]; 0.1 to 10 μM range of concentration): greatest antiproliferative character
CC(C)C[C@H](NC(=O)C12CC3CC(CC(C3)C1)C2)C(=O)O [Complex 16]	astrocyte-selective antiproliferation	–	–
COC(=O)C(CSSCC(NC(=O)C12CC3CC(CC(C3)C1)C2)C(=O)OC)NC(=O)C12CC3CC(CC(C3)C1)C2 [Compound 25, N,N-diadamantylcarbonyl-L-cystine methyl ester]	–	> 800	–
O=C(O)C(CSSCC(NC(=O)C12CC3CC(CC(C3)C1)C2)C(=O)O)NC(=O)C12CC3CC(CC(C3)C1)C2 (stereo not shown) [Compound 26]	–	7.3	–
Cl.NC12CC3CC(CC(C3)C1)C2 [amantadine, 1-aminoadamantane hydrochloride, reference compound]	–	–	reduction of astrocyte proliferation ([1]; at high concentrations (>100 _M)): only slightly reduces astrocyte proliferation
